Experimental data published in paper PMC6100724, “Proteome‐wide analysis of phospho‐regulated PDZ domain interactions” (Molecular Systems Biology, 2018).

Columns and labels:
Assay in all cases: Phosphomimetic ProP-PD selection with NGS
DLG1 PDZ2 = biological target: T1, DLG1 PDZ2 (Homo sapiens, UniProt Q12959); type: binding; settings: mean of selections 1-3, bait DLG1 PDZ2
T1 construct: human DLG1 PDZ2 aa 311–407 in a modified pRSET vector 40; made in house; host or cells: E. coli BL21 Gold (DE3)
T1 sequence (Q12959 311-407): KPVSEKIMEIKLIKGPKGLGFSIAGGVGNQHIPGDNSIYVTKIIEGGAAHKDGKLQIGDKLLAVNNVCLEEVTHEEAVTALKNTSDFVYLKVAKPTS
Method: (§1) Phage selections were carried out for four rounds following a protocol by Huang and Sidhu (Huang & Sidhu, 2011) with minor modifications. Non‐specific binding phage was removed by pre‐selections against immobilized GST throughout the selection. The selections against the (pre‐)phosphorylated wild‐type library were performed in 50 mM HEPES (pH 7.4) and 150 mM NaCl (HBS) following the same procedure after pre‐phosphorylation of the library.
(§2) • Immobilize proteins (15 μg in 100 μl PBS) in a 96‐well MaxiSorp microtiter plate (NUNC) overnight at 4°C. • Start a 2YT culture of E. coli Omnimax supplemented with 100 μg/ml tetracycline to retain the F pilus epitope. • Block the wells with 200 μl 0.5% BSA in PBS for 2 h at 4°C. • Precipitate naïve phage library (10^11 cfu per selection) or amplified phage pool from the previous round of selection by adding one‐fifth the volume of PEG/NaCl. • Incubate on ice for 10 min, and pellet precipitated phage by centrifugation at 5,300 g for 15 min. Resuspend the phage pellet in 100 μl PBS per selection. • Add 100 μl of phage solution to the GST‐coated pre‐selection wells and incubate for 1 h. • Transfer the phage solution to the immobilized target proteins and allow it to bind for 2 h at 8°C. • Wash the plate four times with 200 μl cold wash buffer (PBS, 0.05% Tween‐20). • Elute bound phage by incubation with 100 μl log phase (0.6–0.8 OD600) E. coli Omnimax for 30 min at 37°C with shaking (200 RPM). • Add 10^12 cfu/ml M13K07 helper phage for hyperinfection of the bacteria and incubate as above for 45 min. • Transfer the bacterial culture to 10 ml 2YT supplemented with 50 μg/ml carbenicillin, 25 μg/ml kanamycin, and 300 μM IPTG and incubate overnight at 37°C while shaking. • Perform phage pool ELISA to monitor the progress of the selection as described previously (Huang & Sidhu, 2011).
(§3) The naïve library and the enriched phage pools of the third day of selection were amplified and barcoded by PCR and analyzed by NGS as described elsewhere (McLaughlin & Sidhu, 2013; Ivarsson et al, 2014). The reads were demultiplexed using the barcode sequences and filtered by discarding sequences with a Phred quality score under 30. Sequences were mapped to the original library using Bowtie (Langmead et al, 2009) with two mismatches between reads and library sequence. Nucleotide mutations leading to amino acid substitutions were subsequently removed. Cutoff values of NGS counts were assigned for each pool. PWMs were generated based on the remaining peptides (aligned on the C‐termini) using WebLogo (Crooks et al, 2004).
(§4) However, there was no significant correlation of the actual read counts (selection “strength”) and the initial representation in the library, reflecting the strong selection during phage display (wt+mimetic: P‐value: 0.49, ρ = −0.08, mimetic only: P‐value: 0.069, ρ = −0.2, wt only: P‐value: 0.12, ρ = 0.17). Consequently, the amount of reads for each binder after phage display is not a function of the amount of input reads in the naïve library and no modeling based on the input library frequencies to score the interactions is necessary. To allow for comparison between replicate selections, we used the fraction of NGS reads within a certain set, instead of the absolute number of NGS reads, as the absolute numbers differ between different NGS batches.

DLG1 PDZ1 = type: binding, human; settings: mean of selections 1-3, bait DLG1 PDZ1; for Mean fraction #NGS counts mimetic peptide / total count selection: phosphomimetic peptide; for Mean fraction #NGS counts wt peptide / total counts selection: wild type peptide
Method: as §1, §2, §3, §4

Scribble PDZ2 = type: binding, human; settings: bait Scribble PDZ2; mean of selections 1 and 2 (selection 3 empty)
Method: as §1, §2, §3, §4

Scribble PDZ3 = type: binding, human; settings: bait Scribble PDZ3
Method: as §1, §2, §3, §4

Scribble PDZ1 = biological target: T2, Scribble PDZ1 (Homo sapiens, UniProt Q14160); type: binding; settings: bait Scribble PDZ1; mean of selections 1-3
T2 construct: human Scribble PDZ1 aa 719–829 in; made in house; host or cells: E. coli BL21 Gold (DE3)
T2 sequence (Q14160 719-829): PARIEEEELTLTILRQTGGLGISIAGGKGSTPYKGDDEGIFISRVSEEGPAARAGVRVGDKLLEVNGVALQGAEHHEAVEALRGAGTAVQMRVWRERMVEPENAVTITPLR
Method: as §1, §2, §3, §4

[1] = mean of selections 1-3, wild type peptide

Sequence: RIESLESEV
- Mean fraction #NGS counts mimetic peptide / total count selection (DLG1 PDZ2; phosphomimetic peptide): 0.000103
- Mean fraction #NGS counts mimetic peptide / total count selection (DLG1 PDZ1): 1.703e-5

Sequence: YPGSPDEWV
- Mean fraction #NGS counts mimetic peptide / total count selection (Scribble PDZ2): 0

Sequence: ERLRVETDV
- Mean fraction #NGS counts wt peptide / total counts selection (DLG1 PDZ2): 0.00089
- Mean fraction #NGS counts wt peptide / total counts selection (DLG1 PDZ1): 0.0001761
- Mean fraction #NGS counts wt peptide / total counts selection (Scribble PDZ3; mean over selections 1-3): 0.0002834

Sequence: SEGHTSTTL
- Mean fraction #NGS counts mimetic peptide / total count selection (DLG1 PDZ1): 5.924e-6

Sequence: KPERISTVV
- Mean fraction #NGS counts mimetic peptide / total count selection (DLG1 PDZ2; phosphomimetic peptide): 0.001492
- Mean fraction #NGS counts mimetic peptide / total count selection (DLG1 PDZ1): 0.0005714

Sequence: SARLWETSI
- Mean fraction #NGS counts wt peptide / total counts selection (Scribble PDZ1): 0.005032
- Mean fraction #NGS counts wt peptide / total counts selection (DLG1 PDZ1): 5.924e-6
- Mean fraction #NGS counts wt peptide / total counts selection (Scribble PDZ3; mean over selections 1-3): 0.08665

Sequence: ASSPGGTVV
- Mean fraction #NGS counts wt peptide / total counts selection (DLG1 PDZ1): 2.813e-5

Sequence: TRLSQHTDV
- Mean fraction #NGS counts wt peptide / total counts selection (DLG1 PDZ2): 0.0007437
- Mean fraction #NGS counts wt peptide / total counts selection (DLG1 PDZ1): 0.0004744

Sequence: RREEYSTTV
- Mean fraction #NGS counts mimetic peptide / total count selection (DLG1 PDZ2): 1.723e-5
- Mean fraction #NGS counts mimetic peptide / total count selection (DLG1 PDZ1): 1.94e-5

Sequence: KPSRISTVV
- Mean fraction #NGS counts wt peptide / total counts selection (DLG1 PDZ2; wild type peptide): 2.5129e-5
- Mean fraction #NGS counts wt peptide / total counts selection (DLG1 PDZ1): 0

Sequence: SSGHTSTTL
- Mean fraction #NGS counts wt peptide / total counts selection (DLG1 PDZ1): 0

Sequence: KLSSIESDV
- Mean fraction #NGS counts wt peptide / total counts selection (DLG1 PDZ2): 0.003213
- Mean fraction #NGS counts wt peptide / total counts selection (DLG1 PDZ1): 2.936e-5
- Mean fraction #NGS counts wt peptide / total counts selection (Scribble PDZ3; mean over selections 1-3): 0.0003618

Sequence: KYDKELEPV
- Mean fraction #NGS counts mimetic peptide / total count selection (DLG1 PDZ1): 0.003147

Sequence: RSRSISEDV
- Mean fraction #NGS counts mimetic peptide / total count selection (DLG1 PDZ2): 3.877e-6
- Mean fraction #NGS counts mimetic peptide / total count selection (Scribble PDZ1): 0
- Mean fraction #NGS counts mimetic peptide / total count selection (DLG1 PDZ1): 0
- Mean fraction #NGS counts mimetic peptide / total count selection (Scribble PDZ3; mean over selections 1-3): 0

Sequence: GELALLTKL
- Mean fraction #NGS counts mimetic peptide / total count selection (Scribble PDZ1): 0.0001134
- Mean fraction #NGS counts mimetic peptide / total count selection (DLG1 PDZ1): 1.514e-5

Sequence: ESREVTTYL
- Mean fraction #NGS counts wt peptide / total counts selection (Scribble PDZ1): 2.8202e-5
- Mean fraction #NGS counts wt peptide / total counts selection (DLG1 PDZ1): 0
- Mean fraction #NGS counts wt peptide / total counts selection (Scribble PDZ3; mean over selections 1-3): 5.004e-5

Sequence: ERLRVEEDV
- Mean fraction #NGS counts mimetic peptide / total count selection (DLG1 PDZ2): 0
- Mean fraction #NGS counts mimetic peptide / total count selection (DLG1 PDZ1): 0
- Mean fraction #NGS counts mimetic peptide / total count selection (Scribble PDZ3; mean over selections 1-3): 0

Sequence: VVHEPETEV
- Mean fraction #NGS counts mimetic peptide / total count selection (Scribble PDZ1): 4.939e-5
- Mean fraction #NGS counts mimetic peptide / total count selection (DLG1 PDZ1): 1.207e-5

Sequence: KYDKELTPV
- Mean fraction #NGS counts wt peptide / total counts selection (DLG1 PDZ1): 1.185e-6

Sequence: EGSYLVTSV
- Mean fraction #NGS counts mimetic peptide / total count selection (DLG1 PDZ2; phosphomimetic peptide): 0.0002179
- Mean fraction #NGS counts mimetic peptide / total count selection (Scribble PDZ1): 1.46e-5

Sequence: EEREVTTYL
- Mean fraction #NGS counts mimetic peptide / total count selection (Scribble PDZ1): 0.0003719
- Mean fraction #NGS counts mimetic peptide / total count selection (DLG1 PDZ1): 3.309e-5
- Mean fraction #NGS counts mimetic peptide / total count selection (Scribble PDZ3; mean over selections 1-3): 0.000214

Sequence: ARVSKEEPL
- Mean fraction #NGS counts mimetic peptide / total count selection (DLG1 PDZ2): 0
- Mean fraction #NGS counts mimetic peptide / total count selection (Scribble PDZ1): 1.46e-5
- Mean fraction #NGS counts mimetic peptide / total count selection (Scribble PDZ3; mean over selections 1-3): 0

Sequence: RRESYSTTV
- Mean fraction #NGS counts wt peptide / total counts selection (DLG1 PDZ2): 0.0006987
- Mean fraction #NGS counts wt peptide / total counts selection (DLG1 PDZ1): 0.005493

Sequence: GSLALLTKL
- Mean fraction #NGS counts wt peptide / total counts selection (Scribble PDZ1): 0
- Mean fraction #NGS counts wt peptide / total counts selection (DLG1 PDZ1): 0

Sequence: SSGSQHTNV
- Mean fraction #NGS counts wt peptide / total counts selection (DLG1 PDZ2): 0.001066
- Mean fraction #NGS counts wt peptide / total counts selection (DLG1 PDZ1): 5.9593e-5

Sequence: MRLQSETEV
- Mean fraction #NGS counts mimetic peptide / total count selection (DLG1 PDZ2): 0.0002982
- Mean fraction #NGS counts mimetic peptide / total count selection (DLG1 PDZ1): 3.405e-5

Sequence: EARLWETSI
- Mean fraction #NGS counts mimetic peptide / total count selection (Scribble PDZ1): 0.0002246
- Mean fraction #NGS counts mimetic peptide / total count selection (DLG1 PDZ1): 3.0718e-6
- Mean fraction #NGS counts mimetic peptide / total count selection (Scribble PDZ3; mean over selections 1-3): 0.01196

Sequence: EPTVHVTEL
- Mean fraction #NGS counts mimetic peptide / total count selection (Scribble PDZ1): 0.0001138
- Mean fraction #NGS counts mimetic peptide / total count selection (Scribble PDZ3; mean over selections 1-3): 1.586e-5

Sequence: PIHSLETSL
- Mean fraction #NGS counts wt peptide / total counts selection (Scribble PDZ1): 0.0009794
- Mean fraction #NGS counts wt peptide / total counts selection (Scribble PDZ3; [1]): 0.001163
- Mean fraction #NGS counts wt peptide / total counts selection (Scribble PDZ3; mean over selections 1-3): 0.001163

Sequence: QKFRAETAL
- Mean fraction #NGS counts mimetic peptide / total count selection (Scribble PDZ1): 0.002401
- Mean fraction #NGS counts mimetic peptide / total count selection (Scribble PDZ3; mean over selections 1-3): 0.001978

Sequence: ESGSQHTNV
- Mean fraction #NGS counts mimetic peptide / total count selection (DLG1 PDZ1): 0

Sequence: SSGEQHTNV
- Mean fraction #NGS counts mimetic peptide / total count selection (DLG1 PDZ2): 5.744e-6
- Mean fraction #NGS counts mimetic peptide / total count selection (DLG1 PDZ1): 0

Sequence: PIHSLETEL
- Mean fraction #NGS counts mimetic peptide / total count selection (Scribble PDZ1): 0.002226
- Mean fraction #NGS counts mimetic peptide / total count selection (Scribble PDZ3; mean over selections 1-3): 0.002436

Sequence: QKFRASTAL
- Mean fraction #NGS counts wt peptide / total counts selection (Scribble PDZ1): 0
- Mean fraction #NGS counts wt peptide / total counts selection (Scribble PDZ3; mean over selections 1-3): 4.038e-6

Sequence: VRKLPETEL
- Mean fraction #NGS counts mimetic peptide / total count selection (Scribble PDZ1): 4.38e-5
- Mean fraction #NGS counts mimetic peptide / total count selection (Scribble PDZ3; mean of selections 1-3, phosphomimetic peptide): 0.01059

Sequence: RISSLESEV
- Mean fraction #NGS counts wt peptide / total counts selection (DLG1 PDZ2; wild type peptide): 0.00571
- Mean fraction #NGS counts wt peptide / total counts selection (DLG1 PDZ1): 0.0001168

Sequence: YPGEPDEWV
- Mean fraction #NGS counts mimetic peptide / total count selection (DLG1 PDZ2): 0
- Mean fraction #NGS counts mimetic peptide / total count selection (DLG1 PDZ1): 0.01439

Sequence: ASEPGGTVV
- Mean fraction #NGS counts mimetic peptide / total count selection (DLG1 PDZ1): 0

Sequence: DKEEFLTWL
- Mean fraction #NGS counts mimetic peptide / total count selection (Scribble PDZ1): 0
- Mean fraction #NGS counts mimetic peptide / total count selection (Scribble PDZ3; mean over selections 1-3): 0.0001294

Sequence: TRLEQHTDV
- Mean fraction #NGS counts mimetic peptide / total count selection (DLG1 PDZ2): 6.6203e-5
- Mean fraction #NGS counts mimetic peptide / total count selection (DLG1 PDZ1): 8.513e-6

Sequence: RPHTNETEL
- Mean fraction #NGS counts mimetic peptide / total count selection (Scribble PDZ1): 0.008773
- Mean fraction #NGS counts mimetic peptide / total count selection (Scribble PDZ3; mean over selections 1-3): 0.00587

Sequence: ARVSKETPL
- Mean fraction #NGS counts wt peptide / total counts selection (DLG1 PDZ2): 0.002959
- Mean fraction #NGS counts wt peptide / total counts selection (Scribble PDZ1): 0.07558
- Mean fraction #NGS counts wt peptide / total counts selection (Scribble PDZ3; mean over selections 1-3): 0.1287

Sequence: KLESIESDV
- Mean fraction #NGS counts mimetic peptide / total count selection (DLG1 PDZ1): 0

Sequence: MRLQSETSV
- Mean fraction #NGS counts wt peptide / total counts selection (DLG1 PDZ2): 5.408e-5
- Mean fraction #NGS counts wt peptide / total counts selection (DLG1 PDZ1): 1.185e-6

Sequence: VRKLPSTTL
- Mean fraction #NGS counts wt peptide / total counts selection (Scribble PDZ1): 6.957e-5
- Mean fraction #NGS counts wt peptide / total counts selection (Scribble PDZ3; [1]): 8.076e-6
- Mean fraction #NGS counts wt peptide / total counts selection (Scribble PDZ3; mean over selections 1-3): 8.076e-6

Sequence: MKRLTSTRL
- Mean fraction #NGS counts wt peptide / total counts selection (Scribble PDZ1): 2.8701e-5
- Mean fraction #NGS counts wt peptide / total counts selection (Scribble PDZ3; mean over selections 1-3): 3.6122e-5
